Measurements: BindingDB's records for doi:10.1016/j.bmcl.2018.05.009 (Vanderbilt University Medical Center, 2018)

What was measured:
[1] = molecular target: T1, Muscarinic acetylcholine receptor M1 (Homo sapiens, UniProt P11229); test: ChEBML_1712853
T1 sequence (P11229 whole entry): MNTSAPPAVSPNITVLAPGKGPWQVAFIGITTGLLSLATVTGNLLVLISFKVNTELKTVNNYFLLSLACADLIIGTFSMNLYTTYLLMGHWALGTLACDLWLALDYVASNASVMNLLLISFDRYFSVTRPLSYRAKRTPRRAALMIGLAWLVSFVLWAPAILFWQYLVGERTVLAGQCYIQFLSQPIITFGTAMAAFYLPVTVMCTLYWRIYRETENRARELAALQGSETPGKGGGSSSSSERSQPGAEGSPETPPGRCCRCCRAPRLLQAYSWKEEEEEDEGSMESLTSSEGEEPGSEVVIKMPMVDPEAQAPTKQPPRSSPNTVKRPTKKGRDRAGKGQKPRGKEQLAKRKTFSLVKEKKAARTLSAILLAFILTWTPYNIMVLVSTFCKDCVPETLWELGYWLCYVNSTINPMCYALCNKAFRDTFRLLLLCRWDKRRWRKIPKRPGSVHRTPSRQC
Excerpt: Positive allosteric modulation of human muscarinic acetylcholine M1 receptor expressed in CHO-NFAT cells assessed as potentiation of acetylcholine-induced calcium mobilization after 4 hrs by CCF4-AM dye-based assay

[2] = molecular target: T1, Muscarinic acetylcholine receptor M1; test: Positive allosteric modulation of human muscarinic acetylcholine M1 receptor expressed in CHO cells assessed as potentiation of acetylcholine-induced calcium mobilization

Row | EC50 [1] [nM] | EC50 [2] [nM] | SMILES
1 | 794 | – | O=C(N[C@H]1CCCC[C@@H]1O)C1CN(Cc2ccc(-n3cccn3)cc2)c2ccccc2O1 (some centres not stated)
2 | – | 178 | Cn1cc(-c2ccc(CN3CC(C(=O)N[C@H]4CCCC[C@@H]4O)Oc4ccccc43)cn2)cn1 (some centres not stated)
